Results: patent US20240425479A1, “HALO-SUBSTITUTED AMINO AZA-HETEROARYL COMPOUNDS AS INHIBITORS OF THE HAEMATOPOIETIC PROGENITOR KINASE 1 (HPK1)” (priority 2021, published 2024)

Target: T1, Recombinant (1-346) HPK1 (h) (Homo sapiens, UniProt Q92918)
T1 construct: Recombinant (1-346) HPK1 (h) is incubated with 8 mM MOPS pH 7.0
T1 sequence (Q92918 1-346): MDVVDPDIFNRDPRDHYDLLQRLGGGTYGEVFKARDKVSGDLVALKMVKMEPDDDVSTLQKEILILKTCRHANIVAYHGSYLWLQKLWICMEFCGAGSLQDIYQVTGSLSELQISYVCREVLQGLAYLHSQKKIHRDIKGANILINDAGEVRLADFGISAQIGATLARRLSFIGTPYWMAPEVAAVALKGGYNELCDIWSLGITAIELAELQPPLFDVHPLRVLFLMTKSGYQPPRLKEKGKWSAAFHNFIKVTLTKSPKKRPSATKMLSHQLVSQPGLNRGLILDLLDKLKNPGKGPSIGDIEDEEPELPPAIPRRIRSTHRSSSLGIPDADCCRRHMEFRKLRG
Assay: HPK1 human STE kinase enzymatic radiometric assay
Type: biochemical
Conditions: read-out: HPK1 IC50 nM Range
Method: (a) HPK1 Human STE Kinase Enzymatic Radiometric Assay
A stock solution of 10 mM of test compound is prepared in DMSO. The compound plate was prepared by 3-fold and 9-point serial dilutions. Recombinant (1-346) HPK1 (h) is incubated with 8 mM MOPS pH 7.0, 0.2 mM EDTA, 0.33 mg/mL myelin basic protein, 10 mM MgAcetate and [gamma-33P]-ATP (specific activity and concentration as required). The reaction is initiated by the addition of the Mg/ATP mix. After incubation for 40 minutes at RT, the reaction is stopped by the addition of phosphoric acid to a concentration of 0.5%, 10 μL of the reaction is then spotted onto a P30 filtermat and washed four times for 4 minutes in 0.425% phosphoric acid and once in methanol prior to drying and scintillation counting. For more details of kinase assay protocols, see: Gao, Y. et. al.; Biochem J.451 (2): 313-328, 2013.

IC50 | SMILES
0.1 to 10 nM | Cc1[nH]c(=O)c2c(F)cc(-c3nc(-c4ccc(N5CCN(CC6CC6)CC5)cc4)c(F)nc3N)cc2c1F [Example I-115, 6-(3-amino-6-(4-(4-(cyclopropylmethyl)piperazin-1-yl)phenyl)-5-fluoropyrazin-2-yl)-4,8-difluoro-3-methylisoquinolin-1(2H)-one]
0.1 to 10 nM | Cc1[nH]c(=O)c2c(F)cc(-c3nc(-c4ccc(N5CCOCC5)c(CN(C)C)c4)c(F)nc3N)cc2c1F [Example I-116, 6-(3-amino-6-(3-((dimethylamino)methyl)-4-morpholinophenyl)-5-fluoropyrazin-2-yl)-4,8-difluoro-3-methylisoquinolin-1(2H)-one]
11 to 100 nM | COC1CCN(Cc2cc(-c3nc(-c4cc5c(cc4F)C(=O)NCC5)c(N)nc3F)ccc2N2CCOCC2)CC1 [Example I-118, 6-(3-amino-5-fluoro-6-(3-((4-methoxypiperidin-1-yl)methyl)-4-morpholinophenyl)pyrazin-2-yl)-7-fluoro-3,4-dihydroisoquinolin-1(2H)-one]
0.1 to 10 nM | CN(C)Cc1cc(-c2nc(-c3cc(F)c4c(=O)[nH]cc(F)c4c3)c(N)nc2F)ccc1N1CCOCC1 [Example I-120, 6-(3-amino-6-(3-((dimethylamino)methyl)-4-morpholinophenyl)-5-fluoropyrazin-2-yl)-4,8-difluoroisoquinolin-1(2H)-one]
0.1 to 10 nM | Cc1[nH]c(=O)c2ccc(-c3nc(-c4ccc(N5CCOCC5)c(CN(C)C)c4)c(F)nc3N)cc2c1Cl [Example I-124, 6-(3-amino-6-(3-((dimethylamino)methyl)-4-morpholinophenyl)-5-fluoropyrazin-2-yl)-4-chloro-3-methylisoquinolin-1(2H)-one]
0.1 to 10 nM | Cc1[nH]c(=O)c2ccc(-c3nc(-c4ccc(C5CCOCC5)c(CN(C)C)c4)c(F)nc3N)cc2c1Cl [Example I-125, 6-(3-amino-6-(3-((dimethylamino)methyl)-4-(tetrahydro-2H-pyran-4-yl)phenyl)-5-fluoropyrazin-2-yl)-4-chloro-3-methylisoquinolin-1(2H)-one]
0.1 to 10 nM | CN(C)Cc1cc(-c2nc(-c3ccc4c(c3)CCNC4=O)c(N)nc2F)ccc1N1CCSCC1 [Example I-128, 6-(3-amino-6-(3-((dimethylamino)methyl)-4-thiomorpholinophenyl)-5-fluoropyrazin-2-yl)-3,4-dihydroisoquinolin-1(2H)-one]
0.1 to 10 nM | CN(C)Cc1cc(-c2nc(-c3cc4c(cc3F)C(=O)NCC4)c(N)nc2F)ccc1N1CCSCC1 [Example I-129, 6-(3-amino-6-(3-((dimethylamino)methyl)-4-thiomorpholinophenyl)-5-fluoropyrazin-2-yl)-7-fluoro-3,4-dihydroisoquinolin-1(2H)-one]
11 to 100 nM | COC1CCN(Cc2cc(-c3nc(-c4ccc5c(c4)CCNC5=O)c(N)nc3F)ccc2C2CCOCC2)CC1 [Example I-131, 6-(3-amino-5-fluoro-6-(3-((4-methoxypiperidin-1-yl)methyl)-4-(tetrahydro-2H-pyran-4-yl)phenyl)pyrazin-2-yl)-3,4-dihydroisoquinolin-1(2H)-one]
11 to 100 nM | COC1CCN(Cc2cc(-c3nc(-c4cc5c(cc4F)C(=O)NCC5)c(N)nc3F)ccc2C2CCOCC2)CC1 [Example I-132, 6-(3-amino-5-fluoro-6-(3-((4-methoxypiperidin-1-yl)methyl)-4-(tetrahydro-2H-pyran-4-yl)phenyl)pyrazin-2-yl)-7-fluoro-3,4-dihydroisoquinolin-1(2H)-one]
0.1 to 10 nM | COC1CCN(Cc2cc(-c3nc(-c4cc5c(cc4F)C(=O)NCC5)c(N)nc3F)ccc2N2CCOCC2)C1 (centres unmarked) [Example I-134, 6-(3-amino-5-fluoro-6-(3-((3-methoxypyrrolidin-1-yl)methyl)-4-morpholinophenyl)pyrazin-2-yl)-7-fluoro-3,4-dihydroisoquinolin-1(2H)-one]
0.1 to 10 nM | Nc1nc(F)c(-c2ccc(N3CCN(CCCC(F)F)CC3)cc2)nc1-c1ccc2c(=O)[nH]cc(F)c2c1 [Example I-136, 6-(3-amino-6-(4-(4-(4,4-difluorobutyl)piperazin-1-yl)phenyl)-5-fluoropyrazin-2-yl)-4-fluoroisoquinolin-1(2H)-one]
0.1 to 10 nM | CC(C)N1CCN(c2ccc(-c3nc(-c4cc5c(F)c[nH]c(=O)c5cc4F)c(N)nc3F)cc2)CC1 [Example I-140, 6-(3-amino-5-fluoro-6-(4-(4-isopropylpiperazin-1-yl)phenyl)pyrazin-2-yl)-4,7-difluoroisoquinolin-1(2H)-one]
0.1 to 10 nM | Nc1nc(F)c(-c2ccc(N3CCN(CC4CC4)CC3)cc2)nc1-c1cc2c(F)c[nH]c(=O)c2cc1F [Example I-141, 6-(3-amino-6-(4-(4-(cyclopropylmethyl)piperazin-1-yl)phenyl)-5-fluoropyrazin-2-yl)-4,7-difluoroisoquinolin-1(2H)-one]
0.1 to 10 nM | CN(C)Cc1cc(-c2nc(-c3cc4c(F)c[nH]c(=O)c4cc3F)c(N)nc2F)ccc1C1CCOCC1 [Example I-143, 6-(3-amino-6-(3-((dimethylamino)methyl)-4-(tetrahydro-2H-pyran-4-yl)phenyl)-5-fluoropyrazin-2-yl)-4,7-difluoroisoquinolin-1(2H)-one]

The next lines start with the compound.

SMILES | IC50
Nc1nc(F)c(-c2ccc(N3CCOCC3)c(CN3CCCC3)c2)nc1-c1ccc2c(=O)[nH]ccc2c1 [Example I-114, 6-(3-amino-5-fluoro-6-(4-morpholino-3-(pyrrolidin-1-ylmethyl)phenyl)pyrazin-2-yl)isoquinolin-1(2H)-one] | 0.1 to 10 nM
COc1c[nH]c(=O)c2ccc(-c3nc(-c4ccc(N5CCN(C(C)C)CC5)cc4)c(F)nc3N)cc12 [Example I-119, 6-(3-amino-5-fluoro-6-(4-(4-isopropylpiperazin-1-yl)phenyl)pyrazin-2-yl)-4-methoxyisoquinolin-1(2H)-one] | 11 to 100 nM
Cc1[nH]c(=O)c2ccc(-c3nc(-c4ccc(N5CCN(CC6CC6)CC5)cc4)c(F)nc3N)cc2c1Cl [Example I-122, 6-(3-amino-6-(4-(4-(cyclopropylmethyl)piperazin-1-yl)phenyl)-5-fluoropyrazin-2-yl)-4-chloro-3-methylisoquinolin-1(2H)-one] | 0.1 to 10 nM
Cc1[nH]c(=O)c2ccc(-c3nc(-c4ccc(N5CC6(CN(C)CCO6)C5)cc4)c(F)nc3N)cc2c1F [Example I-123, 6-(3-amino-5-fluoro-6-(4-(8-methyl-5-oxa-2,8-diazaspiro[3.5]nonan-2-yl)phenyl)pyrazin-2-yl)-4-fluoro-3-methylisoquinolin-1(2H)-one] | 11 to 100 nM
COC1CCN(Cc2cc(-c3nc(-c4ccc5c(c4)CCNC5=O)c(N)nc3F)ccc2N2CCSCC2)CC1 [Example I-126, 6-(3-amino-5-fluoro-6-(3-((4-methoxypiperidin-1-yl)methyl)-4-thiomorpholinophenyl)pyrazin-2-yl)-3,4-dihydroisoquinolin-1(2H)-one] | 11 to 100 nM
COC1CCN(Cc2cc(-c3nc(-c4cc5c(cc4F)C(=O)NCC5)c(N)nc3F)ccc2N2CCSCC2)CC1 [Example I-127, 6-(3-amino-5-fluoro-6-(3-((4-methoxypiperidin-1-yl)methyl)-4-thiomorpholinophenyl)pyrazin-2-yl)-7-fluoro-3,4-dihydroisoquinolin-1(2H)-one] | 11 to 100 nM
Cc1nc2cc(-c3nc(-c4ccc(N5CC6(CN(C)CCO6)C5)cc4)c(F)nc3N)ccc2c(=O)[nH]1 [Example I-130, 7-(3-amino-5-fluoro-6-(4-(8-methyl-5-oxa-2,8-diazaspiro[3.5]nonan-2-yl)phenyl)pyrazin-2-yl)-2-methylquinazolin-4(3H)-one] | 101 to 1000 nM
CC1NC(=O)c2c(F)cc(-c3nc(-c4ccc([C@]56C[C@H]5CN(C)C6)cc4)c(F)nc3N)cc2C1(F)F (stereo partly drawn) [Example I-135, 6-(3-amino-5-fluoro-6-(4-((1S,5R)-3-methyl-3-azabicyclo[3.1.0]hexan-1-yl)phenyl)pyrazin-2-yl)-4,4,8-trifluoro-3-methyl-3,4-dihydroisoquinolin-1(2H)-one] | 11 to 100 nM
Nc1nc(F)c(-c2ccc(N3CCN(CCCC(F)F)CC3)cc2)nc1-c1cc(F)c2c(c1)CCNC2=O [Example I-137, 6-(3-amino-6-(4-(4-(4,4-difluorobutyl)piperazin-1-yl)phenyl)-5-fluoropyrazin-2-yl)-8-fluoro-3,4-dihydroisoquinolin-1(2H)-one] | 0.1 to 10 nM
COC1CCN(Cc2cc(-c3nc(-c4ccc5c(c4)CCNC5=O)c(N)nc3F)ccc2N2CCOCC2)CC1 [Example I-138, 6-(3-amino-5-fluoro-6-(3-((4-methoxypiperidin-1-yl)methyl)-4-morpholinophenyl)pyrazin-2-yl)-3,4-dihydroisoquinolin-1(2H)-one] | 11 to 100 nM
Cc1c[nH]c(=O)c2ccc(-c3nc(-c4ccc(N5CCN(C6CCC6)CC5)cc4)c(F)nc3N)cc12 [Example I-139, 6-(3-amino-6-(4-(4-cyclobutylpiperazin-1-yl)phenyl)-5-fluoropyrazin-2-yl)-4-methylisoquinolin-1(2H)-one] | 0.1 to 10 nM
